What was measured:
KM12 (TPM3-TRKA) cells = test: Cytotoxicity test, inhibition of KM12 cell proliferation (CellTiter-Glo); type: cell-based; conditions: Homo sapiens, 72 h, 3 days incubation
Protocol: The inhibitory effect of the example compounds on the activity of KM12 (TPM3-TRKA) cells was examined.
Experimental methods: 1. Preparation of cell plates—KM12 cells were separately seeded in 96-well plates, and 8 ng/ml IL-3 was added to KM12 cells, and the cell plates were incubated in a carbon dioxide incubator overnight. 2. The test compound was dissolved in DMSO and subjected to a 3.16-fold gradient dilution with 9 compound concentrations in triplicate. 3. Compound Treatment of Cells—The compounds were transferred to cell plates at a starting concentration of 10 μM. The cell plates were incubated in a carbon dioxide incubator for 3 days. 4. Detection—The CellTiter-Glo reagent was added to the cell plate and incubated for 30 minutes at room temperature to stabilize the luminescence signal. Readings were performed using a PerkinElmer Envision multi-label analyzer.

[1] = Metabolic stability, human liver microsome test; type: in vitro ADME; conditions: liver microsomes, pH 7.4, 1 μM compound, 0.5 mg/mL protein, 37° C.; for half-life at 1 μM: read-out: human liver microsome test t1/2(min)
Protocol: (§1) Microsome tests: human liver microsomes: 0.5 mg/mL, Xenotech; rat liver microsomes: 0.5 mg/mL, Xenotech; coenzyme (NADPH/NADH): 1 mM, Sigma Life Science; magnesium chloride: 5 mM, 100 mM phosphate buffer agent (pH 7.4).
(§2) Preparation of the stock solution: A certain amount of the powder of the example compounds was accurately weighed and dissolved to 5 mM with DMSO.
(§3) Preparation of phosphate buffer (100 mM, pH 7.4): 150 mL of pre-prepared 0.5 M potassium dihydrogen phosphate solution was mixed with 700 mL of pre-prepared 0.5 M dipotassium hydrogen phosphate solution, and the pH of the mixture was adjusted with 0.5 M dipotassium hydrogen phosphate solution to 7.4. It was diluted 5 times with ultrapure water before use, and magnesium chloride was added to obtain a phosphate buffer (100 mM) containing 100 mM potassium phosphate, 3.3 mM magnesium chloride, and a pH of 7.4.
(§4) A solution of NADPH regeneration system (containing 6.5 mM NADP, 16.5 mM G-6-P, 3 U/mL G-6-P D, 3.3 mM magnesium chloride) was prepared and placed on wet ice before use.
(§5) Preparation of stop solution: acetonitrile solution containing 50 ng/mL propranolol hydrochloride and 200 ng/mL tolbutamide (internal standard). 25057.5 μL of phosphate buffer (pH 7.4) was taken into a 50 mL centrifuge tube, 812.5 μL of human liver microsomes was added respectively, and mixed uniformly to obtain a liver microsome dilution with a protein concentration of 0.625 mg/mL. 25057.5 μL of phosphate buffer (pH 7.4) was taken into a 50 mL centrifuge tube, and 812.5 μL of SD rat liver microsomes was added respectively, and mixed uniformly to obtain a liver microsome dilution with a protein concentration of 0.625 mg/mL.
(§6) Incubation of the sample: The stock solutions of the corresponding compounds were diluted to 0.25 mM as working solutions with an aqueous solution containing 70% acetonitrile before use. 398 μL of human liver microsome or rat liver microsome dilutions were added to 96-well incubation plates (N=2), and 2 μL of 0.25 mM working solutions were added and mixed uniformly, respectively.
(§7) Determination of metabolic stability: 300 μL of pre-cooled stop solution was added to each well of a 96-well deep well plate, which was placed on ice as a stop plate. The 96-well incubation plate and the NADPH regeneration system were placed in a 37° C. water bath, shaken at 100 rpm, and pre-incubated for 5 min. 80 μL of the incubation solution was removed from each well of the incubation plate, added to the stop plate, and mixed uniformly, and 20 μL of the NADPH regeneration system solution was supplemented as a sample at 0 min. Then, 80 μL of the NADPH regeneration system solution was added to each well of the incubation plate to start the reaction and the timing was started. […] 100 μL of the reaction solution was removed at 10, 30, and 90 min of the reaction, respectively, and added to the stop plate, and the reaction was terminated by vortexing for 3 min. The stop plate was centrifuged at 5000×g for 10 min at 4° C. 100 μL of the supernatant was removed into a 96-well plate to which 100 μL of distilled water was previously added, mixed uniformly, and sample analysis was performed by LC-MS/MS.
(§8) Data analysis: The peak areas of the corresponding compounds and the internal standard were detected by LC-MS/MS system, and the ratios of the peak areas of the compounds to the internal standard were calculated.
(§9) The metabolic stability in human and rat liver microsomes was evaluated by simultaneously testing and comparing the compounds of the present invention and the compound without deuteration. The non-deuterated compound LOXO-195 was used as a control.

[2] = Metabolic stability, rat liver microsome test; type: in vitro ADME; conditions: SD, liver microsomes, pH 7.4, 1 μM compound, 0.5 mg/mL protein, 37° C.; for half-life at 1 μM: read-out: rat liver microsome test t1/2(min)
Protocol: as §1, §2, §3, §4, §5, §6, §7, §8, §9

Row | SMILES | microsomal CLint at 1 μM [1] | half-life at 1 μM [1] | microsomal CLint at 1 μM [2] | half-life at 1 μM [2] | IC50 (KM12 (TPM3-TRKA) cells)
1 | C[C@@H]1CCc2ncc(F)cc2[C@H]2CCCN2c2ccn3ncc(c3n2)C(=O)N1 [Compound Φ-a, (6R,15R)-9-fluoro-15-methyl-2,11,16,20,21,24-hexaazapentocyclo[16.5.2.0^2,6,0^7,12,0^21,25]pentacosane-1(24),7,9,11,18(25),19,22-heptaene-17-one, reference compound] | 108 µL/min/mg | 12.9 min | 83.2 µL/min/mg | 16.7 min | 2.56 nM
2 | [2H]C1([2H])c2ncc(F)cc2C2CCCN2c2ccn3ncc(c3n2)C(=O)N[C@H](C)C1([2H])[2H] (stereo partly drawn) [Compound 13, (15R)-9-fluoro-15-methyl-2,11,16,20,21,24-hexaazapentocyclo[16.5.2.0^2,6,0^7,12,0^21,25]pentacosane-1(24),7,9,11,18(25),19,22-heptaene-17-one-13,13,14,14-d4] | 38.5 µL/min/mg | 36 min | 23.3 µL/min/mg | 59.4 min | –
3 | C[C@@H]1CCc2ncc(F)cc2[C@@H]2CCCN2c2ccn3ncc(c3n2)C(=O)N1 [Φ-b, reference compound] | 78.4 µL/min/mg | 17.7 min | 79.2 µL/min/mg | 17.5 min | –
4 | C[C@@H]1CCc2ncc(F)cc2C2CCCN2c2ccn3ncc(c3n2)C(=O)N1 (some centres unmarked) [Compound Φ, reference compound] | 94.3 µL/min/mg | 14.7 min | 59.5 µL/min/mg | 23.3 min | –

Continued, in another order:

Row | microsomal CLint at 1 μM [1] | half-life at 1 μM [1] | microsomal CLint at 1 μM [2] | half-life at 1 μM [2] | SMILES | IC50 (KM12 (TPM3-TRKA) cells)
5 | 79.6 µL/min/mg | 17.4 min | 45.6 µL/min/mg | 30.4 min | [2H]C1([2H])CCN2c3ccn4ncc(c4n3)C(=O)N[C@H](C)CCc3ncc(F)cc3[C@]21[2H] [Compound L-2-a, (6R,15R)-9-fluoro-15-methyl-2,11,16,20,21,24-hexaazapentocyclo[16.5.2.0^2,6,0^7,12,0^21,25]pentacosane-1(24),7,9,11,18(25),19,22-heptaene-17-one-5,5,6-d3] | 2.51 nM
6 | 55.2 µL/min/mg | 25.1 min | 57.9 µL/min/mg | 23.9 min | [2H]C1([2H])CCN2c3ccn4ncc(c4n3)C(=O)N[C@H](C)CCc3ncc(F)cc3[C@@]21[2H] [Compound L-2-b, (6S,15R)-9-fluoro-15-methyl-2,11,16,20,21,24-hexaazapentocyclo[16.5.2.0^2,6,0^7,12,0^21,25]pentacosane-1(24),7,9,11,18(25),19,22-heptaene-17-one-5,5,6-d3] | –
7 | 56.5 µL/min/mg | 24.5 min | 44.2 µL/min/mg | 31.3 min | [2H]C1([2H])c2ncc(F)cc2[C@H]2CCCN2c2ccn3ncc(c3n2)C(=O)N[C@H](C)C1([2H])[2H] [Compound L-1-a, (6R,15R)-9-fluoro-15-methyl-2,11,16,20,21,24-hexaazapentocyclo[16.5.2.0^2,6,0^7,12,0^21,25]pentacosane-1(24),7,9,11,18(25),19,22-heptaene-17-one-13,13,14,14-d4] | –
8 | 78.7 µL/min/mg | 17.6 min | 35.5 µL/min/mg | 39.1 min | [2H]C([2H])([2H])C1([2H])CCc2ncc(F)cc2C2CCCN2c2ccn3ncc(c3n2)C(=O)N1 (racemic) [Compound 70, 9-fluoro-15-(methyl-d3)-2,11,16,20,21,24-hexaazapentocyclo[16.5.2.0^2,6,0^7,12,0^21,25]pentacosane-1(24),7,9,11,18(25),19,22-heptaene-17-one-15-d] | –
9 | 49.8 µL/min/mg | 27.8 min | 75.1 µL/min/mg | 18.5 min | [2H]C1([2H])c2ncc(F)cc2[C@@H]2CCCN2c2ccn3ncc(c3n2)C(=O)N[C@H](C)C1([2H])[2H] [Compound L-1-b, (6S,15R)-9-fluoro-15-methyl-2,11,16,20,21,24-hexaazapentocyclo[16.5.2.0^2,6,0^7,12,0^21,25]pentacosane-1(24),7,9,11,18(25),19,22-heptaene-17-one-13,13,14,14-d4] | –

Reference: US11345703B2, “Substituted pyrazolo[1,5-a]pyrimidine macrocyclic compound” (SHENZHEN TARGETRX, INC., priority 2018, dated 2022)
